Measured values: US5260276A, “Linear and monocyclic endothelin antagonists” (Warner-Lambert Company, priority 1991, dated 1993)
Where a SMILES comes first, the peptide text is derived from it. Bridges are numbered along the chain shown (N, C = ends). Where no end group is shown, it is not given here. [ ]: non-standard residue; d: D form. Ava = NCCCCC(=O)O

What was measured:
[1] = target: endothelin receptor ([125I]-ET-1 binding), rat heart ventricle; assay: Inhibition of [125I]-ET-1 binding in a receptor assay, rat heart ventricle; conditions: [125I]-ET-1, rat heart ventricle 10 μg, 37° C., 2 hours
Protocol: The compounds of Formula I are valuable antagonists of endothelin. […] Thus, the compounds of Formula I were tested for their ability to inhibit [^125 I]-ET-1([^125 I]-Endothelin-1) binding in a receptor assay. The binding of the compounds of Formula I is determined by incubation (37° C., 2 hours) of a compound of Formula I with [^125 I]-ET-1 and the tissue (rat heart ventricle (10 μg)) in 50 mM Tris(hydroxymethyl)aminomethane hydrochloride (Tris-HCl) (pH 7.4), 5 mM ethylenediamine tetraacetic acid (EDTA), 2 mM ethylene glycol bis(β-aminoethyl ether)N,N,N',N'-tetraacetic acid (EGTA), 100 μM phenylmethylsulfonyl fluoride (PMSF), and 100 μM bacitracin containing protease inhibitors (total volume of 0.5 mL). IC50 values are calculated by weighing nonlinear regression curve-fitting to the mass-action (Langmuir) equation. The functional activity of compounds of Formula I is determined in Rat-1 cells by measuring intracellular levels of second messengers. Thus, cells are prelabeled with [^3 H]-inositol and endothelin-stimulated accumulation of total [^3 H]-inositol phosphates in the presence of Li^+ is monitored using anion exchange chromatography as described by Muldoon, L. L., et al, Journal of Biological Chemistry, Volume 264, pages 8529-8536 (1989) and Dudley, D. T., et al, Molecular Pharmacology, Volume 38, pages 370-377 (1990). Antagonist activity is assessed as the ability of added compounds to reduce endothelin stimulated inositol phosphate accumulation. The data in the table show the endothelin antagonist activity of representative compounds of Formula I.

[2] = system: ET receptor, selected tissues; conditions: relative to ET-1; cited from earlier work

## CC[C@H](C)[C@H](NC(=O)[C@H](CC(=O)O)NC(=O)[C@H](CC(C)C)NC(=O)[C@H](Cc1c[nH]cn1)NC(=O)[C@@H]1CSSC[C@H](N)C(=O)N[C@@H](CO)C(=O)NCCCCC(=O)N[C@@H](C(C)C)C(=O)N[C@@H](Cc2ccc(O)cc2)C(=O)N[C@@H](Cc2ccccc2)C(=O)N1)C(=O)N[C@H](C(=O)N[C@@H](Cc1c[nH]c2ccccc12)C(=O)O)[C@@H](C)CC [Example 5] (H-CS[Ava]VYFCHLDIIW-OH; disulfide 1-7; N-terminus and C-terminus assumed)
[1]
  IC50: 1.8 µM

## CC[C@H](C)[C@H](NC(=O)[C@H](CC(=O)O)NC(=O)[C@H](CC(C)C)NC(=O)[C@H](Cc1c[nH]cn1)NC(=O)[C@@H]1CSSC[C@H](N)C(=O)N[C@@H](CO)C(=O)N[C@@H](CC(=O)O)C(=O)N[C@@H](CC(C)C)C(=O)N[C@@H](CCC(=O)O)C(=O)N[C@@H](C(C)C)C(=O)N[C@@H](Cc2ccc(O)cc2)C(=O)N[C@@H](Cc2ccccc2)C(=O)N1)C(=O)N[C@H](C(=O)N[C@@H](Cc1c[nH]c2ccccc12)C(=O)O)[C@@H](C)CC [Example 10] (H-CSDLEVYFCHLDIIW-OH; disulfide 1-9)
[1]
  IC50: 3.2 µM

## CC[C@@H](C)[C@@H](NC(=O)[C@@H](NC(=O)[C@H](CC(=O)O)NC(=O)[C@H](CC(C)C)NC(=O)[C@H](Cc1c[nH]cn1)NC(=O)[C@@H]1CSSC[C@H](N)C(=O)N[C@@H](CO)C(=O)N[C@@H](CO)C(=O)N[C@@H](CO)C(=O)N[C@@H](C(C)C)C(=O)N[C@@H](Cc2ccc(O)cc2)C(=O)N[C@@H](Cc2ccccc2)C(=O)N1)[C@@H](C)CC)C(=O)N[C@@H](Cc1c[nH]c2ccccc12)C(=O)O [Example 14] (H-CSSSVYFCHLDI[dI]W-OH; disulfide 1-8; N-terminus assumed)
[1]
  IC50: 2.6 µM

## ET[1-20]: endothelin-1 fragment 1-20, lacking the C-terminal amino acid Trp-21 (CSCSSLMDKECVYFCHLDII; ends and bridges not checked; cysteine pairing not given here; UniProt P05305 53-72, looked up, fragment)
[2]
  fold less functional activity: approximately 1000 fold
